Here are results for 1 molecule from article PMC6670186, “Novel prodrugs of decitabine with greater metabolic stability and less toxicity” (Clinical Epigenetics, 2019).

One data set has as its system HCT116 xenografts. Nature of the data set: Xenograft tumor formation assay in nude mice. It counts as in vivo. The following applies: intraperitoneal, twice per week. How it is done: (§1) HCT116 cells (5.0 × 10^6 cells per mouse) were subcutaneously injected into the inguinal region of 6-week-old female nude mice (n = 81) (BALB/c-nu/nu; CLEA Japan, Tokyo, Japan). Once tumors reached an average volume of 80 mm^3, mice bearing xenograft tumors were randomly divided into nine groups and treated intraperitoneally with vehicle (5% DMSO in 10% 2-hydroxypropyl-β-cyclodextrin solution), DAC, OR-2003, or OR-2100. The length and width of tumors were measured with standard calipers twice per week, and tumor volumes were calculated using the formula tumor volume = (length × width^2) × 0.5. Body weight was measured twice per week. […] The remaining mice were categorized as group 1 and continuously treated with drugs. At 29 days after the treatment, tumors, major organs, bone marrow, and blood serum were collected from six mice and blood count and biochemical tests were performed. The mice were maintained under standard conditions according to the institutional guidelines for animal care.

In the next data set the test system is HCT116 cells. Nature of the data set: Cell growth inhibition, HCT116. It counts as cell-based, Human. Particulars: Homo sapiens, HCT-116. How it is done: (§2) Cells were seeded at a density of 1 × 10^3 to 5 × 10^3 cells/well in a 96-well microplate or 1 × 10^4 to 5 × 10^4 cells/well in a six-well microplate on day 0 in triplicate, followed by treatment with drugs on day 1. The cell growth of HCT116 was estimated using IncuCyte (Essen BioScience, K.K.; Tokyo, Japan) for 94 h. The cell viability of SW480, HT29, and TMK1 was evaluated using a WST-8 [2-(2-methoxy-4-nitrophenyl)-3-(4-nitrophenyl)-5-(2, 4-disulfophenyl)-2H tetrazolium, monosodium salt] assay (Nacalai Tesque Inc., Kyoto, Japan). The numbers of cells of RKO, breast cancer cell lines, sarcoma cell lines, and neuroblastoma cell lines were counted using a microscope. The half-maximum inhibitory concentration (IC50) was obtained using the non-linear regression analysis of log (inhibitor) versus the normalized response with a variable slope using the GraphPad Prism software (GraphPad Software; La Jolla, CA).

A further data set concerns DNMT1. Put plainly: DNMT1 western blot. It counts as cell-based, Human. Particulars: HML58-3 cells. The method, then: Cells were seeded at a density of 3 × 10^5 cells/10-cm dish and treated with appropriate drug(s) 24 h after the initial seeding. On day 5, the cells were lysed in RIPA buffer (20 mM Tris-HCl, pH 7.6; 150 mM NaCl; 1 mM EDTA; 0.1% SDS; and 1% NP-40) containing 3 mM dithiothreitol, proteinase inhibitor cocktail (Nacalai Tesque; Kyoto, Japan). Proteins were resolved by SDS-PAGE and transferred to an Immobilon-P […] membrane (Merck Millipore; Billerica, MA). After blocking, each membrane was incubated with rabbit anti-DNMT1 antibody (Abcam, 1:1000) or mouse anti-PARP antibody (BD, 1:1000). Following three cycles of 10-min washes with PBS supplemented with 0.5% Tween 20 (PBS-T), blots were incubated with secondary antibodies (rabbit IgG, 1:1000; mouse IgG, 1:10000) and rewashed. Chemiluminescence was detected using an ECL kit (Biological Industries).

Details of data set [1]: method as in Yoo C.B. et al. Cancer Research 2007; 67:6400–6408. Particulars: ref Yoo C.B. et al. Cancer Research 2007, 67:6400–6408; cited from earlier work.
Data set [2] in a line: Adverse effects in xenograft-bearing nude mice (body weight, blood count, biochemical tests). Format: in vivo. The method, then:
as §1

Another data set concerns HML58-3. Put plainly: Expression microarray. The following applies: 1 μM, 58,341 probes. It counts as cell-based, Human. The method, then:
Cy3-labeled cRNA was synthesized from 100 ng of total RNA using a Low Input Quick Amp Labeling Kit, One-Color (Agilent Technologies, Santa Clara, CA), and 600 ng of labeled cRNA was fragmented and hybridized to SurePrint G3 Human Gene Expression 8 x 60K v3 Microarray (Agilent Technologies). The hybridized microarray was scanned with an Agilent G2600D microarray scanner (Agilent Technologies). The scanned data were processed using Feature Extraction software (Agilent Technologies) and analyzed using GeneSpring software (Agilent Technologies). The 75th percentile of the signal intensity of all probes was normalized to be 0, and the genes with signal intensities of − 1 or more were regarded as showing positive expression.

The target of data set [3] is T1, human recombinant cytidine deaminase (Homo sapiens, UniProt P32320).
T1 construct: His; purchased AT Gen Co. Ltd; Seoul, Korea
Put plainly: Stability in the presence of cytidine deaminase. The following applies: cytidine deaminase, after 0.5 h. Format: in vitro ADME. The source says: The remaining of the starting derivatives were continuously assayed using HPLC analytical conditions as described above.

Data set [4] is described as follows: Pharmacokinetics in mice, intraperitoneal. It counts as in vivo. The following applies: female, ICR, mouse, ip, 0.2 mg/kg, plasma, DAC (metabolite for OR compounds), equimolar dose, read-out: AUC 0 → lim, DAC. How it is done: Six-week-old female ICR mice were intraperitoneally injected with 0.20 mg/kg of DAC, 0.29 mg/kg of OR-2003, 0.32 mg/kg of OR-2009, 0.30 mg/kg of OR-2100, and 0.31 mg/kg of OR-2102. The doses were decided so that equivalent amounts of molar concentration would be administered. The blood plasma was collected before and at 5, 15, 30, 45, 60, 90, and 120 min after the treatment. All experimental procedures were approved by the Committee of National Cancer Center.

Data set [5] has as its system exogenous UCHL1 promoter and OSR2 promoter CpG island. Put plainly: Quantitative methylation-specific PCR of marker genes. It counts as cell-based, Human. Particulars: qMSP. The method, then: One microgram of EcoRV-digested genomic DNA was treated with sodium bisulfite as described previously. Bisulfite-treated DNA was resuspended in 40 μL of TE-buffer (10 mM Tris, pH 8.0; 1 mM EDTA, pH 8.0), and 1 μL was used for quantitative methylation-specific PCR (qMSP) using primers specific to methylated and unmethylated target loci, including MetLuc-UCHL1 promoter, OSR2 promoter, and UCHL1 promoter (Additional file 1: Table S1). As a fully unmethylated DNA control, genomic DNA from peripheral blood cells of a healthy person was amplified twice using a GenomiPhi DNA amplification kit (GE Healthcare Life Sciences; Little Chalfont, UK). As a fully methylated DNA control, the fully unmethylated DNA was methylated by SssI methylase (New England Biolabs; Beverly, MA).

The test system of the next data set is TMK1 cells. Nature of the data set: Cell viability (WST-8), TMK1. Format: cell-based. Particulars: Homo sapiens, TMK-1. How it is done:
as §2
In general terms: Tetrazolium assays rely on reduction of a dye to a coloured formazan, in cell work by metabolically active cells.

Another data set has as its system RKO cells. Put plainly: Cell growth inhibition, RKO. Format: cell-based, Human. Particulars: Homo sapiens. How it is done:
as §2

“Also recorded” adds a separate entry of the source.

T1 sequence (P32320 whole entry): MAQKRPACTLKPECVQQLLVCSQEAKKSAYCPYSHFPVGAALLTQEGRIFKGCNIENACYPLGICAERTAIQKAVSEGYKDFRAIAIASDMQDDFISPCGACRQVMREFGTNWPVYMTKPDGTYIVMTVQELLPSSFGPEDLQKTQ

With `Nc1ncn([C@H]2C[C@H](O)[C@@H](CO)O2)c(=O)n1` [DAC, 2′-deoxy-5-azacytidine, reference compound], in the data set with HCT116 xenografts, the “tumor growth (tumor volume)” value was “suppressed the xenograft growth”. Further, the IC50 (usually the midpoint of a concentration-inhibition curve) in the data set with HCT116 cells is 850 nM; in the data set with TMK1 cells, 5830 nM; with RKO cells, 0.2 nM. Moreover, in the data set on DNMT1, the DNMT1 protein level entry was “depleted at 3 and 10 μM”. For the same molecule, the “Stability t1/2 in PBS” value in data set [1] is 20 h. The body weight result in data set [2] (7.50 and 3.75 mg/kg, initial experiment) is “severe body weight loss”. In data set [2] (even at a lower dose (0.625 and 1.250 mg/kg)), the “WBC count and liver function (AST, ALT)” value was “affected”. Besides, the “number of genes upregulated more than twofold and to − 1.0 log2 value” with HML58-3 is 2011. Further, the Enzymatic stability result in data set [3] is “completely degraded; also recorded: Complete degradation after 0.5 h”. Moreover, the AUC (as a rule, the area under the concentration-time curve, a measure of exposure) in data set [4] is 0.378 µM·h. Also, in [5], the “dose with strongest effect of DNA demethylation” value amounted to 1.0 µM.
